# Measured values published in patent US9409952B2, “Peptide-compound cyclization method” (Chugai Seiyaku Kabushiki Kaisha, priority 2011, dated 2016).
# Like-named read-outs stand apart in the source and are kept apart here. Starred links: 1 amine or outer side, 2 acyl side, 3 side chain; linkers in the order of their positions; H or OH if unused. Positions of bridges follow the written chain, without caps; N, C: chain ends. Non-standard residues stand in square brackets, D forms with d. Residues, ends and D or L forms follow the SMILES beside them. *: point of attachment. Phe(3-(CH2)4CO) = O=C([C@H](Cc1cccc(CCCCC(=O)[*:3])c1)N[*:1])[*:2]; NMePhe(3-Cl) = CN[C@@H](Cc1cccc(Cl)c1)C(=O)O; NEtPhe = CCN[C@@H](Cc1ccccc1)C(=O)O; hhPhe = N[C@@H](CCCc1ccccc1)C(=O)O; NMeF = CN[C@@H](Cc1ccccc1)C(=O)O; NMeI = CC[C@H](C)[C@H](NC)C(=O)O; NMeβAla = CN(CCC(=O)[*:2])[*:1]; NMeL = CN[C@@H](CC(C)C)C(=O)O; NMeV = CN[C@H](C(=O)O)C(C)C; NMeS = CN[C@@H](CO)C(=O)O; NMeA = CN[C@@H](C)C(=O)O; Piperidide = C1CCN(*)CC1; dNMeA = CN[C@H](C)C(=O)O; β3hA = C[C@H](N)CC(=O)O; Sar = CNCC(=O)O; tBu = CC(C)(C)*
# Key:
# [1] = PAMPA (parallel artificial membrane permeability assay); format: in vitro ADME; conditions: for Papp at 18 hours, 50 µM: PAMPA
# How it was run: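 Artificial membrane was 10% (w/v) egg lecithin plus 0.5% (w/v) cholesterol in dodecane on a PVDF filter. A 10 mM DMSO stock was added at 0.5% (v/v) to donor buffer (50 mM MOPSO, pH 6.5, 5.0% glycocholic acid). After 18 h at 37 °C, LC/MS or LC/UV gave donor and acceptor levels for Pe.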
# [2] = Metabolic stability in human hepatic microsome; format: in vitro ADME; conditions: microsomes
# [3] = membrane permeation rate (Pe), 50 mM MOPSO buffer pH 6.5 with 5.0% glycocholic acid, 37° C., 18 hours, read-out: iPAMPA Pe
# [4] = pH 7.4, human hepatic microsome, NADPH(+), read-out: CL NADPH(+)
Compound,"Papp at 18 hours, 50 µM [1, 3]","microsomal CLint at 1 uM [2, 4]","iPAMPA Pe ([1]; membrane permeation rate (Pe), 50 mM MOPSO buffer pH 6.5 with 5.0% glycocholic acid, 37° C., 18 hours)","Papp at 18 hours, 50 µM ([1]; pH 6.5)","microsomal CLint at 1 uM ([2]; human, pH 7.4, CL NADPH(+))"
CC(C)C[C@@H]1NC(=O)[C@H](CC(C)C)N(C)C(=O)[C@H](C)NC(=O)[C@H](C)N(C)C(=O)[C@H]([C@@H](C)O)NC(=O)CN(C)C(=O)[C@H](C(C)C)N(C)C(=O)[C@H](CC(C)C)N(C)C(=O)[C@H](Cc2ccccc2)NC(=O)CN(C)C(=O)C[C@@H](C(=O)N2CCCCC2)NC1=O [DP-167] ([Sar]F[NMeL][NMeV][Sar]T[NMeA]A[NMeL]LD-Piperidide; lactam N-11),9.5 ×10⁻⁶ cm/s,75 µL/min/mg,,,
CC[C@H](C)[C@H](NC(=O)[C@H](CC(C)C)N(C)C(=O)[C@H](CC(C)C)N(C)C(=O)[C@H](Cc1ccccc1)N(C)C(=O)[C@@H]1CC(=O)N[C@H](C(C)C)C(=O)N(C)[C@@H](Cc2cccc(Cl)c2)C(=O)N(C)[C@@H](C)C(=O)N(C)[C@@H](CC(C)C)C(=O)N[C@@H]([C@@H](C)O)C(=O)N(C)[C@@H](CC(C)C)C(=O)N1)C(=O)N1CCCCC1 [DP-916] ([dV][NMePhe(3-Cl)][NMeA][NMeL]T[NMeL]D[NMeF][NMeL][NMeL]I-Piperidide; lactam N-7),,55 µL/min/mg,1.0E−07,,
CC(C)C[C@H]1C(=O)N(C)[C@@H](C(C)C)C(=O)N[C@@H](Cc2ccccc2)C(=O)N[C@H](C(=O)N(C)[C@@H](Cc2ccccc2)C(=O)N(C)[C@@H](Cc2ccccc2)C(=O)N[C@@H](C)C(=O)N2CCCCC2)CC(=O)N[C@H](C)C(=O)N[C@@H](C(C)C)C(=O)N(C)[C@@H](CC(C)C)C(=O)N[C@@H]([C@@H](C)O)C(=O)N(C)[C@@H](Cc2ccccc2)C(=O)NCC(=O)N1C [DP-501] ([dA]V[NMeL]T[NMeF]G[NMeL][NMeV]FD[NMeF][NMeF]A-Piperidide; lactam N-10),0.23 ×10⁻⁶ cm/s,7 µL/min/mg,,,
CC(C)C[C@H]1C(=O)N(C)[C@@H](C(C)C)C(=O)N(C)[C@@H](C)C(=O)N[C@@H](CCCc2ccccc2)C(=O)N(C)[C@@H](C)C(=O)N[C@H](C(=O)N2CCCCC2)CC(=O)N(C)[C@@H](C)C(=O)N[C@@H]([C@@H](C)O)C(=O)N(C)[C@@H](C)C(=O)N[C@@H](C)C(=O)N(C)[C@@H](Cc2ccccc2)C(=O)N1C [DP-735] ([NMeA]T[NMeA]A[NMeF][NMeL][NMeV][NMeA][hhPhe][NMeA]D-Piperidide; lactam N-11),21 ×10⁻⁶ cm/s,88 µL/min/mg,,,
CC[C@H](C)[C@H]1C(=O)N(C)[C@@H](Cc2ccccc2)C(=O)N[C@@H](CC(C)C)C(=O)N[C@H](C(=O)N2CCCCC2)CC(=O)N(C)CCC(=O)N(C)[C@@H](CC(C)C)C(=O)N[C@@H]([C@@H](C)O)C(=O)N(C)[C@@H](Cc2ccccc2)C(=O)N(C)[C@@H](CC(C)C)C(=O)N[C@@H](C)C(=O)N(C)[C@@H](CC(C)C)C(=O)N1C [DP-104] ([NMeβAla][NMeL]T[NMeF][NMeL]A[NMeL][NMeI][NMeF]LD-Piperidide; lactam N-11),,,,6.7 ×10⁻⁶ cm/s,29 µL/min/mg
CC(C)[C@@H]1NC(=O)[C@H](C)N(C)C(=O)[C@@H](C)N(C)C(=O)C[C@@H](C(=O)N(C)[C@@H](Cc2ccccc2)C(=O)N(C)[C@@H](Cc2ccccc2)C(=O)N[C@@H](C)C(=O)N2CCCCC2)NC(=O)[C@H](C)N(C)C(=O)[C@H](C)N(C)C(=O)[C@H]([C@@H](C)O)NC(=O)[C@H](C)N(C)C(=O)[C@H](Cc2ccccc2)N(C)C(=O)[C@H](C)N(C)C1=O [DP-509] ([dNMeA][NMeA]V[NMeA][NMeF][NMeA]T[NMeA][NMeA]D[NMeF][NMeF]A-Piperidide; lactam N-10),5.1 ×10⁻⁶ cm/s,30 µL/min/mg,,,
CC(C)C[C@H]1C(=O)N(C)[C@@H](C)C(=O)N(C)[C@@H](CC(C)C)C(=O)N[C@H](C(=O)N2CCCCC2)CC(=O)N(C)[C@@H](C)C(=O)N(C)[C@@H](Cc2ccccc2)C(=O)N[C@@H]([C@@H](C)O)C(=O)N(C)[C@@H](C)C(=O)N(C)[C@@H](CC(C)C)C(=O)NCC(=O)N1C [DP-489] ([NMeA][NMeF]T[NMeA][NMeL]G[NMeL][NMeA][NMeL]D-Piperidide; lactam N-10),24 ×10⁻⁶ cm/s,59 µL/min/mg,,,
CC(C)C[C@@H]1NC(=O)[C@H](C)NC(=O)[C@H]([C@@H](C)O)NC(=O)[C@H](CC(C)C)NC(=O)[C@H](CC(C)C)NC(=O)[C@H](C(C)C)NC(=O)CCN(C)C(=O)C[C@@H](C(=O)N2CCCCC2)NC(=O)[C@H](CC(C)C)NC(=O)[C@H](Cc2ccccc2)NC(=O)[C@H](CC(C)C)NC1=O [DP-514] ([NMeβAla]VLLTALLFLD-Piperidide; lactam N-11),6.8 ×10⁻⁶ cm/s,103 µL/min/mg,,,
CC[C@H](C)[C@H]1C(=O)N[C@@H]([C@@H](C)O)C(=O)N(C)CC(=O)N[C@H](C(=O)N2CCCCC2)CC(=O)N[C@H](C(C)C)C(=O)N[C@@H](CC(C)C)C(=O)N(C)[C@@H](CC(C)C)C(=O)N(C)[C@@H](Cc2ccccc2)C(=O)N[C@@H](C)C(=O)N(C)[C@@H](Cc2ccccc2)C(=O)N(C)[C@@H](CC(C)C)C(=O)N1C [DP-232] ([dV]L[NMeL][NMeF]A[NMeF][NMeL][NMeI]T[Sar]D-Piperidide; lactam N-11),18 ×10⁻⁶ cm/s,77 µL/min/mg,,,
CC(C)C[C@@H]1NC(=O)CN(C)C(=O)[C@H](C(C)C)N(C)C(=O)[C@H](C)NC(=O)[C@H]([C@@H](C)O)NC(=O)[C@H](CC(C)C)N(C)C(=O)[C@H](C)N(C)C(=O)[C@H](CC(C)C)N(C)C(=O)[C@H](Cc2ccccc2)NC(=O)CCN(C)C(=O)C[C@@H](C(=O)N2CCCCC2)NC1=O [DP-102] ([NMeβAla]F[NMeL][NMeA][NMeL]TA[NMeV][Sar]LD-Piperidide; lactam N-11),,,,1.8 ×10⁻⁶ cm/s,5 µL/min/mg
CC(C)C[C@H]1C(=O)N(C)[C@@H](Cc2ccccc2)C(=O)N(C)[C@@H](CC(C)C)C(=O)N[C@@H]([C@@H](C)O)C(=O)N(C)CC(=O)N[C@@H](COC(C)(C)C)C(=O)N(C)[C@@H](CC(C)C)C(=O)N[C@H](C(=O)N2CCCCC2)CC(=O)N1C [DP-689] ([NMeL][NMeF][NMeL]T[Sar]S(tBu)[NMeL]D-Piperidide; lactam N-8),44 ×10⁻⁶ cm/s,103 µL/min/mg,,,
CC[C@H](C)[C@H]1C(=O)N[C@@H](CC(C)C)C(=O)N(C)[C@@H](Cc2ccccc2)C(=O)N(C)[C@@H](CC(C)C)C(=O)N[C@@H]([C@@H](C)O)C(=O)N[C@@H](Cc2ccccc2)C(=O)N(C)[C@@H](C(C)C)C(=O)N[C@H](C(=O)N2CCCCC2)CC(=O)N(C)CC(=O)N[C@@H](C)C(=O)N1C [DP-145] ([Sar]A[NMeI]L[NMeF][NMeL]TF[NMeV]D-Piperidide; lactam N-10),29 ×10⁻⁶ cm/s,232 µL/min/mg,,,
CC[C@H](C)[C@@H]1NC(=O)[C@H](Cc2ccccc2)NC(=O)CCCCc2cccc(c2)C[C@@H](C(=O)N2CCCCC2)NC(=O)[C@H](CC(C)C)NC(=O)[C@H](CC(C)C)NC(=O)[C@H](C(C)C)NC(=O)[C@H](C)N(C)C(=O)[C@H](Cc2ccccc2)NC(=O)CNC(=O)[C@H]([C@@H](C)O)NC(=O)[C@H](CC(C)C)NC(=O)[C@@H]2CCCN2C1=O [DP-903] (FIPLTGF[NMeA]VLL[Phe(3-(CH2)4CO)]-Piperidide; lactam N-12),0.34 ×10⁻⁶ cm/s,26 µL/min/mg,,,
CC[C@H](C)[C@@H]1NC(=O)[C@H](CC(C)C)N(C)C(=O)[C@H](Cc2ccccc2)N(C)C(=O)[C@@H](C(C)C)NC(=O)C[C@H](C)NC(=O)[C@H](CC(C)C)N(C)C(=O)[C@H](C)N(C)C(=O)[C@H]([C@@H](C)O)NC(=O)[C@H](Cc2cccc(Cl)c2)N(C)C(=O)[C@H](CC(C)C)N(C)C1=O [DP-782] (cyclo(I[NMeL][NMePhe(3-Cl)]T[NMeA][NMeL][β3hA][dV][NMeF][NMeL])),,,,10 ×10⁻⁶ cm/s,127 µL/min/mg
CC[C@H](C)[C@H]1C(=O)N(C)[C@@H](C)C(=O)N[C@@H](Cc2ccccc2)C(=O)N[C@@H]([C@@H](C)O)C(=O)N[C@@H](CC(C)C)C(=O)N(C)[C@@H](Cc2ccccc2)C(=O)N(C)[C@@H](C(C)C)C(=O)N[C@H](C(=O)N2CCCCC2)CC(=O)N[C@@H](C)C(=O)N[C@@H](CC(C)C)C(=O)N1C [DP-18] (AL[NMeI][NMeA]FTL[NMeF][NMeV]D-Piperidide; lactam N-10),,,,30 ×10⁻⁶ cm/s,202 µL/min/mg
CC(C)C[C@@H]1NC(=O)[C@H](CO)N(C)C(=O)[C@H](CC(C)C)N(C)C(=O)[C@H](CC(C)C)N(C)C(=O)[C@H](CC(C)C)N(C)C(=O)C[C@H](C)NC(=O)[C@H](C)NC(=O)[C@H](CC(C)C)N(C)C(=O)[C@H](CC(C)C)NC(=O)[C@H](CC(C)C)N(C)C(=O)CN(C)C1=O [DP-644] (cyclo(A[β3hA][NMeL][NMeL][NMeL][NMeS]L[Sar][NMeL]L[NMeL])),33 ×10⁻⁶ cm/s,80 µL/min/mg,,,
CC(C)C[C@@H]1NC(=O)[C@H]([C@@H](C)O)NC(=O)[C@H](CC(C)C)N(C)C(=O)[C@H](C)N(C)C(=O)[C@H](Cc2ccccc2)N(C)C(=O)[C@H](Cc2ccccc2)NC(=O)[C@H](CC(C)C)N(C)C(=O)CCN(C)C(=O)C[C@@H](C(=O)N(C)[C@@H](Cc2ccccc2)C(=O)N[C@@H](C)C(=O)N2CCCCC2)NC(=O)[C@H](CC(C)C)N(C)C1=O [DP-351] ([NMeβAla][NMeL]F[NMeF][NMeA][NMeL]TL[NMeL]D[NMeF]A-Piperidide; lactam N-10),63 ×10⁻⁶ cm/s,51 µL/min/mg,,,
CCN1C(=O)CCCCc2cccc(c2)C[C@@H](C(=O)N2CCCCC2)NC(=O)[C@H](CC(C)C)N(C)C(=O)CN(C)C(=O)[C@H]([C@@H](C)O)NC(=O)[C@H](CC(C)C)N(C)C(=O)[C@H](Cc2ccccc2)N(C)C(=O)[C@H](C)NC(=O)[C@@H]1Cc1ccccc1 [DP-863] ([NEtPhe]A[NMeF][NMeL]T[Sar][NMeL][Phe(3-(CH2)4CO)]-Piperidide; lactam N-8),,,,35 ×10⁻⁶ cm/s,927 µL/min/mg
